Entries after “also recorded” stand apart in the source; their conditions may differ.

One series deals with T1, calpain-2 (Homo sapiens, UniProt P17655).
T1 sequence (P17655 1-700): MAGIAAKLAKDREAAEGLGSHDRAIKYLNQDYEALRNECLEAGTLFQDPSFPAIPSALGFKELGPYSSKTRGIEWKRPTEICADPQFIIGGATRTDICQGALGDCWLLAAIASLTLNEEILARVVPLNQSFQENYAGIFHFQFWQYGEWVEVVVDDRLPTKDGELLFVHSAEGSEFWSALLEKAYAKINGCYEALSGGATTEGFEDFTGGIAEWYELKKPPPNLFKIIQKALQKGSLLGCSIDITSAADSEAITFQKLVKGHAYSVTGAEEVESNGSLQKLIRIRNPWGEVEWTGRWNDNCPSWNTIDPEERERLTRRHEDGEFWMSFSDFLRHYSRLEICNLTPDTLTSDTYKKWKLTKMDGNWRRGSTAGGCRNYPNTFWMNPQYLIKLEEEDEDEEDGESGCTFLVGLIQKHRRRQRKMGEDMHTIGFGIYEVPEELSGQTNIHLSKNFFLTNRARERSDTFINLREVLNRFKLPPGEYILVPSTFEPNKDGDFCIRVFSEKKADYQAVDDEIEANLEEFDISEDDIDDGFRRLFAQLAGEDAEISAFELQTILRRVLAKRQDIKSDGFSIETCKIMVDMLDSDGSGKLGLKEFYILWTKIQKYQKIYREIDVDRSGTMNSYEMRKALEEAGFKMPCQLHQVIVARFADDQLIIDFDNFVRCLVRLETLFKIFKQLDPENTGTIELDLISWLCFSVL
T1 sequence (P04632 1-268 partner): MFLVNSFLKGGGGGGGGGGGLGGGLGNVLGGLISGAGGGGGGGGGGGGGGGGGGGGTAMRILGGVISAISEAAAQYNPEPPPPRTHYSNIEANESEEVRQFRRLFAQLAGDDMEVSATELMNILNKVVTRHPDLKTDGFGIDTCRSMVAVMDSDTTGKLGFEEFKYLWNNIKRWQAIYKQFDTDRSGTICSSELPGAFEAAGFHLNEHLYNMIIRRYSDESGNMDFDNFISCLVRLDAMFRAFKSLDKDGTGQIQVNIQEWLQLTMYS
The experiment in a line: Inhibitory activity of NA112 isomers against calpain-2. The class given is biochemical. The following applies: highest concentration tested, 3 μM. The procedure:
(§1) The inhibitory activity of the compounds NA112A (S-S isomer) and NA112B (S-R stereoisomer) against calpain-1 and calpain-2 were determined.

Series [1] is described as follows: Stability in mouse plasma at 37° C. (residual inhibition of purified human calpain-2). The class given is in vitro ADME. As to conditions: β-cyclodextrin formulation, 10 μM. The procedure:
NA112 (C12, 0.2 mM) was incubated with mouse plasma at 37° C. for the indicated periods of time. Aliquots were taken and the degree of inhibition of purified human calpain-2 was measured. Results were normalized to the maximum degree of inhibition (100%) measured at to.
NA112A in β-cyclodextrin formulation (10 μM) was incubated in mouse plasma at 37° C. for the indicated periods of time. Aliquots were taken and the degree of inhibition of purified human calpain-2 was measured. Results were normalized to the maximum degree of inhibition (50%) measured at t0.

In the next series the target is T2, calpain-1 (Homo sapiens, UniProt P07384).
T2 sequence (P07384 1-714): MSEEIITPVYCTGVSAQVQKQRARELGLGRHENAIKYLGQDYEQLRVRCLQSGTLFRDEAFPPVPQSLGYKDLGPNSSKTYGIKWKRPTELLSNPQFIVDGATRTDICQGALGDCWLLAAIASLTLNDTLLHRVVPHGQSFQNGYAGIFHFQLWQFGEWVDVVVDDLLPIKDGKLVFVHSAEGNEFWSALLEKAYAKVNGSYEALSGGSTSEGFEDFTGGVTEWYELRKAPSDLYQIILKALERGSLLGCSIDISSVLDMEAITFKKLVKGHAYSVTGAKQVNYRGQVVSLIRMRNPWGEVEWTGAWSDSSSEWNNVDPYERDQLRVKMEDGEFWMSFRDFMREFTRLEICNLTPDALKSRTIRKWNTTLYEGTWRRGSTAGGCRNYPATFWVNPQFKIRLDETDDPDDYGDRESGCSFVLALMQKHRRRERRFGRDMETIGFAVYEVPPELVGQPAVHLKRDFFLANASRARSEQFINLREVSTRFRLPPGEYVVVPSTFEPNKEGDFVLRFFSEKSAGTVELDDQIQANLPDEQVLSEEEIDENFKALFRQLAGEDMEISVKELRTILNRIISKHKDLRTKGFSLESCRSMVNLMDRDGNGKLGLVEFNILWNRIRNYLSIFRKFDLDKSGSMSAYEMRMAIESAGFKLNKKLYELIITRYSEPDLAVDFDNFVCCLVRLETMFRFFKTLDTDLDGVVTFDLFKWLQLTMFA
T2 sequence (P04632 1-268 partner): T1 sequence (P04632 1-268 partner)
The experiment in a line: Inhibitory activity of NA112 isomers against calpain-1. It is filed as biochemical. The following applies: highest concentration tested, 3 μM. The procedure: as §1

Series [2] deals with T3, human calpain-1 (purified from erythrocytes, ecalpain-1) (Homo sapiens, UniProt P07384).
T3 construct: human calpain-1 (purified from erythrocytes, ecalpain-1); from tissue; host or cells: human erythrocytes
T3 sequence (P07384 1-714): T2 sequence (P07384 1-714)
T3 sequence (P04632 1-268 partner): T1 sequence (P04632 1-268 partner)
The experiment in a line: Inhibition of human calpain-1 purified from erythrocytes. It is filed as biochemical. As to conditions: highest concentration tested, 3 μM. The procedure:
(§2) Various concentrations of NA112 in the liposomal formulation were incubated with human calpain-1 (purified from erythrocytes, ecalpain-1) or a recombinant human calpain-2 (hcalpain-2) and calpain activity assayed as in FIG. 1. IC50 were determined and transformed into Ki values (FIG. 10A, 10B). Values previously obtained with NA112 dissolved in DMSO are shown for comparison (FIG. 10B).
(§3) Cerebellar homogenates from wild-type (WT) or calpain-1 Knock-out (KO) mice were incubated with 20 μM calcium to activate calpain-1 or with 2 mM calcium to activate calpain-2, respectively, and increasing concentrations of NA184.
(§4) Like in NA112, there are 2 chiral centers in NA184. The inhibitory activity of the compounds NA184A (S-S isomer) and NA184B (S-R stereoisomer) against erythrocyte human calpain-1 (ecalpain-1) and recombinant human calpain-2 (hcalpain-2) were determined.

Series [3] concerns the target T4, recombinant human calpain-2 (hcalpain-2) (Homo sapiens, UniProt P17655).
T4 sequence (P17655 1-700): T1 sequence (P17655 1-700)
T4 sequence (P04632 1-268 partner): T1 sequence (P04632 1-268 partner)
The experiment in a line: Inhibition of recombinant human calpain-2. As to conditions: highest concentration tested, 3 μM. The class given is biochemical. The procedure: as §2, §3, §4

Series [4] in a line: Epimerization/inactivation in PBS at 37° C. It is filed as physicochemical.

Regarding `CC[C@H](NC(=O)[C@H](CC(C)C)NC(=O)NCc1ccccc1)C(=O)C(=O)NCc1cc(OC)cc(OC)c1` [NA112A, (S)-2-(3-benzylureido)-N-((S)-1-((3,5-dimethoxybenzyl)amino)-1,2-dioxopentan-3-yl)-4-methylpentanamide], at calpain-2, the “Inhibitory activity against calpain-2” value is reported as “expected inhibitory activity”. Moreover, the “Inactivation in mouse plasma” value in series [1] is “rapidly inactivated; also recorded: became inactive”.
Turning to `CC[C@@H](NC(=O)[C@H](CC(C)C)NC(=O)NCc1ccccc1)C(=O)C(=O)NCc1cc(OC)cc(OC)c1` [NA112B], the “Inhibitory activity against calpain-1” value on calpain-1 was “no inhibitory activity”. Also, at calpain-2, the “Inhibitory activity against calpain-2” value is on record as “no inhibitory activity”.
As for `CC[C@H](NC(=O)[C@H](CC(C)C)NC(=O)NCc1ccccc1)C(=O)C(=O)NCc1cccc(Cl)c1OC` [NA184A], in series [2], the “Inhibitory activity against ecalpain-1” value is given as “expected inhibitory activity”. Moreover, the “Inhibitory activity against hcalpain-2” value in series [3] is on record as “expected inhibitory activity”. Also, the “Epimerization/inactivation in PBS” value in series [4] is “rapidly inactivated; also recorded: rapid epimerization”.
Regarding `CC[C@@H](NC(=O)[C@H](CC(C)C)NC(=O)NCc1ccccc1)C(=O)C(=O)NCc1cccc(Cl)c1OC` [NA184B], the “Inhibitory activity against ecalpain-1” value in series [2] is listed as “no inhibitory activity”. Besides, in series [3], the “Inhibitory activity against hcalpain-2” value is on record as “no inhibitory activity”.

The record behind these values is US12606520B2, “Calpain-2 inhibitor compounds and methods of treatment” (WESTERN UNIVERSITY OF HEALTH SCIENCES, priority 2020, dated 2026).
